Assay results reported in ChEMBL document CHEMBL5325479, “Synthesis and biological evaluation of sulfonylpyridine derivatives as potential anti-chlamydia agents” (Bioorg Med Chem, 2023).
Values after ≈ are worked out from the molar mass of the structure shown. Active and inactive are the calls of the source. The rule behind the calls is not given here.

System: Chlamydia trachomatis
Assay: Anti-chlamydia activity against Chlamydia trachomatis serovar L2 infected in human HEp-2 cells assessed as inhibition of inclusion growth measured treated 8 hrs POI followed measured after 16 hrs by immunofluorescence assay
Format: functional, organism-based
Conditions: serovar L2, HEp-2
With `CC(C)(C(=O)NCCCSc1ccc(Cl)cc1)S(=O)(=O)c1ccc(Br)cn1` the IC50 was 2.33 mg/L (≈ 4.74 µM).
In the case of `CC(C)(C(=O)NCCSc1cccc(Cl)c1)S(=O)(=O)c1ccc(C(F)(F)F)cn1`, the IC50 is reported as 17.9 mg/L (≈ 38.3 µM).
`CC(C)(C(=O)NCCCSc1cccc(Cl)c1)S(=O)(=O)c1ccc(C(F)(F)F)cn1` gave an IC50 of 14.8 mg/L (≈ 30.7 µM).
Molecule `Cc1ccccc1OCCCNC(=O)C(C)(C)S(=O)(=O)c1ccc(Br)cn1` has an IC50 of 3.47 mg/L (≈ 7.62 µM).
`Cc1ccc(SCCNC(=O)C(C)(C)S(=O)(=O)c2ccc(C(F)(F)F)cn2)cc1` gave an IC50 of 23.5 mg/L (≈ 52.6 µM).
Work on `Cc1ccccc1SCCCNC(=O)C(C)(C)S(=O)(=O)c1ccc(C(F)(F)F)cn1` yielded an IC50 of 32.5 mg/L (≈ 70.7 µM).
Molecule `CC(C)(C(=O)NCCCSc1ccccc1)S(=O)(=O)c1ccc(C(F)(F)F)cn1` has an IC50 of 31.4 mg/L (≈ 70.3 µM).
Molecule `CC(C)(C(=O)NCCNc1ccccc1)S(=O)(=O)c1ccc(Br)cn1` has an IC50 of 11.7 mg/L (≈ 27.3 µM).
`Cc1ccccc1OCCCNC(=O)C(C)(C)S(=O)(=O)c1ccc(C(F)(F)F)cn1` gave an IC50 of 20.4 mg/L (≈ 46 µM).
Molecule `CC(C)(C(=O)NCCCSc1ccc(Cl)cc1)S(=O)(=O)c1ccc(C(F)(F)F)cn1` has an IC50 of 3.88 mg/L (≈ 8.07 µM).
Molecule `CC(C)(C(=O)NCCNc1ccccc1)S(=O)(=O)c1ccc(C(F)(F)F)cn1` has an IC50 of 14.2 mg/L (≈ 34.3 µM).
With `Cc1ccccc1OCCNC(=O)C(C)(C)S(=O)(=O)c1ccc(Br)cn1` the IC50 was 18.3 mg/L (≈ 41.5 µM).
`Cc1ccccc1SCCNC(=O)C(C)(C)S(=O)(=O)c1ccc(C(F)(F)F)cn1` showed an IC50 of 17.8 mg/L (≈ 39.8 µM).
For `COc1ccc(OCCNC(=O)C(C)(C)S(=O)(=O)c2ccc(C(F)(F)F)cn2)cc1`, the IC50 was 42.2 mg/L (≈ 94.4 µM).
Molecule `Cc1ccc(SCCCNC(=O)C(C)(C)S(=O)(=O)c2ccc(Br)cn2)cc1` has an IC50 of 16.1 mg/L (≈ 34.2 µM).
For `Cc1ccc(OCCNC(=O)C(C)(C)S(=O)(=O)c2ccc(C(F)(F)F)cn2)cc1`, the IC50 was 29.8 mg/L (≈ 69.3 µM).
In the case of `COc1ccccc1OCCNC(=O)C(C)(C)S(=O)(=O)c1ccc(C(F)(F)F)cn1`, the IC50 is reported as 39.8 mg/L (≈ 89.2 µM).
`Cc1ccccc1OCCNC(=O)C(C)(C)S(=O)(=O)c1ccc(C(F)(F)F)cn1` gave an IC50 of 28.9 mg/L (≈ 67.2 µM).
Molecule `CC(C)(C(=O)NCCCOc1ccc(Cl)cc1)S(=O)(=O)c1ccc(C(F)(F)F)cn1` has an IC50 of 26.1 mg/L (≈ 56.2 µM).

System: Chlamydia trachomatis
Assay: Anti-chlamydia activity against Chlamydia trachomatis serovar L2 infected in human HEp-2 cells assessed as inhibition of inclusion growth measured at 0.78 to 50 ug/ml treated 8 hrs POI followed measured after 16 hrs by immunofluorescence assay
Format: functional, organism-based
Conditions: dose 0.78-50 µg/ml
With `COc1ccccc1OCCCNC(=O)C(C)(C)S(=O)(=O)c1ccc(C(F)(F)F)cn1` the inhibition was “inactive”.
In the case of `CC(=O)N(CCNC(=O)C(C)(C)S(=O)(=O)c1ccc(C(F)(F)F)cn1)c1ccccc1`, the inhibition is reported as “inactive”.
For `CC(C)(C(=O)NCCc1ccncc1)S(=O)(=O)c1ccc(C(F)(F)F)cn1`, the inhibition was “inactive”.
For `Cc1ccc(OCCNC(=O)C(C)(C)S(=O)(=O)c2ccc(Br)cn2)cc1`, the inhibition was “inactive”.
With `CN(CCSc1ccc(Cl)cc1)C(=O)C(C)(C)S(=O)(=O)c1ccc(C(F)(F)F)cn1` the inhibition was “inactive”.
For `CC(C)(C(=O)NCCOc1ccc([N+](=O)[O-])cc1)S(=O)(=O)c1ccc(C(F)(F)F)cn1`, the inhibition was “inactive”.
With `CC(C)(C(=O)NCCCC1=NC2C=CC=CC2=N1)S(=O)(=O)c1ccc(C(F)(F)F)cn1` (stereo unspecified) the inhibition was “inactive”.

System: HEp-2
Assay: Cytotoxicity against human HEp-2 cells assessed as cell viability at 4 to 128 ug/ml measured after 24 hrs by XTT assay
Format: toxicity, cell-based
Conditions: hep-2, 24 h, dose 4-128 µg/ml
With `CC(C)(C(=O)NCCCSc1ccc(Cl)cc1)S(=O)(=O)c1ccc(Br)cn1` the Activity was “Toxic”.

System: not listed separately
Assay: Cytotoxicity against human HEC-1-A cells assessed as cell survival at 128 ug/ml measured after 24 hrs by XTT assay
Format: toxicity, cell-based
Conditions: at 128 µg/mL, read-out: Survival
In the case of `CC(C)(C(=O)NCCCSc1ccc(Cl)cc1)S(=O)(=O)c1ccc(Br)cn1`, the viability at 24 h, 128 ug/ml is reported as 100%.

System: not listed separately
Assay: Stability of the compound in simulated gastric fluid at pH 1.2 measured after 24 hrs by HPLC analysis
Format: ADME
Conditions: simulated gi fluid, pH 1.2, 24 h
For `CC(C)(C(=O)NCCCSc1ccc(Cl)cc1)S(=O)(=O)c1ccc(Br)cn1`, the Stability was “Stable”.

System: Staphylococcus aureus
Assay: Antibacterial activity against Staphylococcus aureus USA 300 JE2 assessed as bacterial death measured upto 256 ug/ml
Format: functional, organism-based
Conditions: dose <= 256.0 µg/ml
With `CC(C)(C(=O)NCCCSc1ccc(Cl)cc1)S(=O)(=O)c1ccc(Br)cn1` the Activity was “inactive”.

System: Escherichia coli
Assay: Antibacterial activity against Escherichia coli K12 assessed as bacterial death measured upto 256 ug/ml
Format: functional, organism-based
Conditions: dose <= 256.0 µg/ml
With `CC(C)(C(=O)NCCCSc1ccc(Cl)cc1)S(=O)(=O)c1ccc(Br)cn1` the Activity was “inactive”.
